# Measured values as given in ChEMBL document CHEMBL2413067, “Investigation into the functional impact of the vancomycin C-ring aryl chloride” (2013).
# Legend:
# [1] = test system: Staphylococcus aureus; test: Antimicrobial activity against vancomycin-sensitive Staphylococcus aureus ATCC 25923 after 24 hrs; format: functional; details: ATCC 25923, 24 h
# [2] = Binding affinity to N,N'-Ac2-L-Lys-D-Ala-D-Ala model of cell wall ligand by UV-difference assay
# [3] = Binding affinity to N,N'-Ac2-L-Lys-D-Ala-D-Ser model of cell wall ligand by UV-difference assay
# [4] = Binding affinity to N,N'-Ac2-L-Lys-D-Ala-D-Phe model of cell wall ligand by UV-difference assay
# [5] = Binding affinity to N,N'-Ac2-L-Lys-D-Ala-Gly model of cell wall ligand by UV-difference assay
Structure (SMILES),MIC [1] [µg/mL],Ka [2] [×10⁵ /M],Ka [3] [×10³ /M],Ka [4] [×10² /M],Ka [5] [×10⁴ /M]
CN[C@H](CC(C)C)C(=O)N[C@H]1C(=O)N[C@@H](CC(N)=O)C(=O)N[C@H]2C(=O)N[C@H]3C(=O)N[C@H](C(=O)N[C@H](C(=O)O)c4cc(O)cc(O)c4-c4cc3ccc4O)[C@H](O)c3ccc(cc3)Oc3cc2cc(c3O)Oc2ccc(cc2)[C@H]1O,20,0.18,–,–,–
CN[C@H](CC(C)C)C(=O)N[C@H]1C(=O)N[C@@H](CC(N)=O)C(=O)N[C@H]2C(=O)N[C@H]3C(=O)N[C@H](C(=O)N[C@H](C(=O)O)c4cc(O)cc(O)c4-c4cc3ccc4O)[C@H](O)c3ccc(cc3)Oc3cc2cc(c3O)Oc2ccc(cc2Cl)[C@H]1O,10,0.38,4,9,0.49
CN[C@H](CC(C)C)C(=O)N[C@H]1C(=O)N[C@@H](CC(N)=O)C(=O)N[C@H]2C(=O)N[C@H]3C(=O)N[C@H](C(=O)N[C@H](C(=O)O)c4cc(O)cc(O)c4-c4cc3ccc4O)[C@H](O)c3ccc(c(Cl)c3)Oc3cc2cc(c3O)Oc2ccc(cc2Cl)[C@H]1O [VANCOMYCIN AGLYCON],1.25,1.4,3.3,9.1,1
CN[C@H](CC(C)C)C(=O)N[C@H]1C(=O)N[C@@H](CC(N)=O)C(=O)N[C@H]2C(=O)N[C@H]3C(=O)N[C@H](C(=O)N[C@H](C(=O)O)c4cc(O)cc(O)c4-c4cc3ccc4O)[C@H](O)c3ccc(c(Cl)c3)Oc3cc2cc(c3O[C@@H]2O[C@H](CO)[C@@H](O)[C@H](O)[C@H]2O[C@H]2C[C@](C)(N)[C@H](O)[C@H](C)O2)Oc2ccc(cc2Cl)[C@H]1O [VANCOMYCIN],1.25,1.8,–,–,–
